Experimental data from US10086039B2, “Lamin A, an activator of longevity/anti-aging SIRT1 protein” (THE UNIVERSITY OF HONG KONG, priority 2012, dated 2018).

What was measured:
[1] = target: T1, FLAG-SIRT1 binding to lamin A (Homo sapiens, UniProt Q96EB6); test: Co-immunoprecipitation of FLAG-SIRT1 and lamin A in HEK293 cells; format: cell-based; settings: dose-dependent per FIG. 3D legend
T1 construct: expressed in transfected cells; host or cells: HEK293
T1 sequence (Q96EB6 1-747): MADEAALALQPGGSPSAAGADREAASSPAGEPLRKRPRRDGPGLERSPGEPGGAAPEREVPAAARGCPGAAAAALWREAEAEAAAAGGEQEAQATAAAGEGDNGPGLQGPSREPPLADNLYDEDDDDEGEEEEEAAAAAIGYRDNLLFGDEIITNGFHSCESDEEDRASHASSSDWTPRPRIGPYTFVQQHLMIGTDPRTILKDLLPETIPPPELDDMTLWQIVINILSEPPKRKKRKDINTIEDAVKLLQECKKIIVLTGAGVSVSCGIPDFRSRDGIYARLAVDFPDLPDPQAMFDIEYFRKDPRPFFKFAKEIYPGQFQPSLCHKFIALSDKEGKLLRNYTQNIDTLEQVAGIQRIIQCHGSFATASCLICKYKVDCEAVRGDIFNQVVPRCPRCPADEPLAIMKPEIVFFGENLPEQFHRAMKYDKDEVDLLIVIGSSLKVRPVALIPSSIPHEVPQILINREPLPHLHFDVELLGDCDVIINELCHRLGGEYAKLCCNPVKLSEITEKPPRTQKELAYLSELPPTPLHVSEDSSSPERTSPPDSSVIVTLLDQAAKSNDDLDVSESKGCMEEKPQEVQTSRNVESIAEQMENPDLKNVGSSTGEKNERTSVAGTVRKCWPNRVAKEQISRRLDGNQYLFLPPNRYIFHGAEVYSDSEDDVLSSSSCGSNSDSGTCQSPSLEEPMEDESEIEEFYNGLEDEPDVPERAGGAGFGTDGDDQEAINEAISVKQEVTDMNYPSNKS
T1 sequence (P02545 1-646 partner limits assumed): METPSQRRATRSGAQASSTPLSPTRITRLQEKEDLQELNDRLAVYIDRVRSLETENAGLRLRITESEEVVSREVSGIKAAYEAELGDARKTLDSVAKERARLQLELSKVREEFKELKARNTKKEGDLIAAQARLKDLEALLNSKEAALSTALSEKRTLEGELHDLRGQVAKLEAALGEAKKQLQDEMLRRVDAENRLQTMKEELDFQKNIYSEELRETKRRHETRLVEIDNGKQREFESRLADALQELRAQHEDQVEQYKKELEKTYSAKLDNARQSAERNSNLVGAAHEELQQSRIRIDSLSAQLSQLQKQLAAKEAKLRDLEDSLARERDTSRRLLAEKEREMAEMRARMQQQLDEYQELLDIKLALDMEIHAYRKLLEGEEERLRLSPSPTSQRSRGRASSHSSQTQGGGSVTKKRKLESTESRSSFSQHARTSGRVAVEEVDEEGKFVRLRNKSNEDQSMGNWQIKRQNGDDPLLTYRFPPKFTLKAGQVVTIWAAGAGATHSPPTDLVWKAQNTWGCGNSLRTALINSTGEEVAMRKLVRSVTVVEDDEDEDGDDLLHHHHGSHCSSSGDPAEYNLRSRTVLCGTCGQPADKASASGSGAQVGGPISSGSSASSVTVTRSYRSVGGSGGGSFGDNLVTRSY
Protocol: For co-immunoprecipitation, cells were lysed into pre-chilled RIPA buffer containing 300 mM or 500 mM NaCl and protease inhibitors. Primary antibodies or appropriate control IgGs were added to the lysate and incubated for 2 h on a rocking platform at 4° C. before Agarose beads were added and incubated O/N. The beads were washed twice with RIPA buffer, resuspended into Laemmli buffer and boiled, and protein suspension was collected by centrifugation and stored for further analysis.

[2] = target: T2, rhSIRT1 association with NM (Homo sapiens, UniProt Q96EB6); test: Association of rhSIRT1 with insoluble NM fraction in test tube; format: binding; settings: NM from wild-type and Zmpste24−/− cells, resveratrol 10 μM
T2 sequence (Q96EB6 1-747): T1 sequence (Q96EB6 1-747)

Zmpste24−/− mice [3] = test: BMSC colony-forming efficiency after in vivo treatment of Zmpste24−/− mice; design: species or system mouse; settings: resveratrol 20 μg/ml in drinking water, four months, vs vehicle
Protocol: (§1) Zmpste24^−/− mice have been described previously (Pendas et al., 2002). Mouse experimentation was performed in accordance with the guidelines of the Committee on the Use of Live Animals in Teaching and Research (CULATR) at the University of Hong Kong. New-born Zmpste24^−/− mice and wild-type controls were fed with resveratrol (20 μg/ml) or N-acetyl Cysteine (1 mg/ml) in drinking water. The survival of resveratrol-treated, NAC-treated, or vehicle-treated Zmpste24^−/− mice was recorded and their body weight was monitored weekly. The trabecular bone organization and bone mineral density were determined by micro-CT. The survival rate was analyzed by Kaplan-Meier method and statistical comparison was performed by Log-rank (Mantel-Cox) Test.
Bone marrow stromal cells were isolated and cultured according to modified protocol (Enumeration and Expansion of Mouse Mesenchymal Progenitor Cells Using MESENCUILT®, Stemcell Technologies, Canada). Briefly, bone marrow cells were flushed out from femurs and tibias with α-MEM (Invitrogen, Carlsbad, Calif., USA) supplemented with 20% FBS, and plated in petri dishes. Non-adherent cells were removed on day 3 and medium was replaced every 3 days. […] Colonies containing more than 50 cells were counted. BMSC colony forming efficiency was calculated as number of colonies formed by […] bone marrow nucleated cells. […]

Zmpste24−/− mice [4] = test: HSC population in bone marrow of treated Zmpste24−/− mice (FACS); format: in vivo, mouse; settings: resveratrol 20 μg/ml in drinking water
Protocol: as §1, with “Zmpste24^-/-” for “Zmpste24^−/−”, “([…]” for “(Pendas”, “Test. To analyze hematopoietic stem cells, mononucleated cells were collected by flushing femurs and tibias with staining medium (HBSS supplemented with 2% FBS) and stained with biotin-coupled lineage markers, Biotin-Flt3, PE-Sca-1, APC-c-Kit, and then SAv-PerCP. FACS profile analyses were performed using a BD FACSCalibur.” for “Test.”

## Oc1ccc(C=Cc2cc(O)cc(O)c2)cc1 [resveratrol]
[1]
  binding of FLAG-SIRT1 to lamin A: enhanced the binding
[2]
  association of rhSIRT1 with NM: enhanced the association
Zmpste24−/− mice [3]
  BMSC colony-forming efficiency: significantly increased
Zmpste24−/− mice [4]
  early decline in HSCs: rescued
